Source: ChEMBL document CHEMBL1201862, “PubChem BioAssay data set” (2004)
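Grown in 96-well plates, cells were treated for 48 hours with each compound at five concentrations. Insufficient inhibition: endpoint recorded as highest concentration tested. GI50 is the concentration that inhibits growth by half.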 Calls of active or inactive are those of the source. Rule as the data show it: active = GI50 up to about 1.1 µM and inactive = higher. Where a SMILES comes first, the peptide text is derived from it. The star is where a group is joined. Boc = CC(C)(C)OC(=O)*

Assays:
Experiment in all cases: DTP human tumour cell line panel, 48 h
IGROV-1 = system: IGROV-1
SN12C = system: SN12C
MOLT-4 = system: MOLT-4
OVCAR-3 = system: OVCAR-3
MDA-MB-231 = system: MDA-MB-231
SF-268 = system: SF-268
OVCAR-8 = system: OVCAR-8
LOX IMVI = system: LOX IMVI
UACC-257 = system: UACC-257
A498 = system: A498
MDA-N = system: MDA-N
SR = system: SR
SNB-75 = system: SNB-75
U-251 = system: U-251
UACC-62 = system: UACC-62
OVCAR-5 = system: OVCAR-5
Malme-3M = system: Malme-3M
HCC 2998 = system: HCC 2998
NCI-H460 = system: NCI-H460
T47D = system: T47D

SMILES | GI50 (IGROV-1) | GI50 (SN12C) | GI50 (MOLT-4) | GI50 (OVCAR-3) | GI50 (MDA-MB-231) | GI50 (SF-268) | GI50 (OVCAR-8) | GI50 (LOX IMVI) | GI50 (UACC-257) | GI50 (A498) | GI50 (MDA-N) | GI50 (SR) | GI50 (SNB-75) | GI50 (U-251) | GI50 (UACC-62) | GI50 (OVCAR-5) | GI50 (Malme-3M) | GI50 (HCC 2998) | GI50 (NCI-H460) | GI50 (T47D)
CSCCCNC(=O)c1csc(-c2csc(CCNC(=O)CNC(=O)CNC(=O)OC(C)(C)C)n2)n1 | > 100 µM (inactive) | > 100 µM (inactive) | > 100 µM (inactive) | > 100 µM (inactive) | > 100 µM (inactive) | > 100 µM (inactive) | > 100 µM (inactive) | > 100 µM (inactive) | > 100 µM (inactive) | > 100 µM (inactive) | > 100 µM (inactive) | > 100 µM (inactive) | 37.2 µM (inactive) | > 100 µM (inactive) | > 100 µM (inactive) | > 100 µM (inactive) | > 100 µM (inactive) | > 100 µM (inactive) | > 100 µM (inactive) | –
COc1cc(CC2CCc3nc(N)nc(N)c3C2)cc(OC)c1OC (stereo not given) | 0.131 µM (active) | 31.1 µM (inactive) | 1.01 µM (active) | 8.85 µM (inactive) | – | 0.174 µM (active) | > 32.7 µM (inactive) | 0.0798 µM (active) | 24.8 µM (inactive) | 20.7 µM (inactive) | – | 0.236 µM (active) | 1.55 µM (inactive) | > 35.2 µM (inactive) | 0.145 µM (active) | 1.36 µM (inactive) | 0.851 µM (active) | 0.621 µM (active) | 0.0571 µM (active) | 21.6 µM (inactive)
CN(CC(=O)O)c1ncc2c(n1)-c1ccccc1CC2 | > 100 µM (inactive) | > 100 µM (inactive) | > 100 µM (inactive) | > 100 µM (inactive) | > 100 µM (inactive) | > 100 µM (inactive) | > 100 µM (inactive) | > 100 µM (inactive) | > 100 µM (inactive) | > 100 µM (inactive) | > 100 µM (inactive) | > 100 µM (inactive) | 74.8 µM (inactive) | > 100 µM (inactive) | > 100 µM (inactive) | > 100 µM (inactive) | > 100 µM (inactive) | – | > 100 µM (inactive) | –
COc1ccc(C2=Nn3c(nnc(Cc4ccc(Cl)cc4)c3=O)SC2)cc1 | 51.1 µM (inactive) | 61.2 µM (inactive) | 26.7 µM (inactive) | 28.2 µM (inactive) | 60.3 µM (inactive) | > 100 µM (inactive) | 93.1 µM (inactive) | 34.9 µM (inactive) | 46.9 µM (inactive) | 30.8 µM (inactive) | – | – | – | 40.3 µM (inactive) | 32.4 µM (inactive) | > 100 µM (inactive) | > 100 µM (inactive) | 55.1 µM (inactive) | 37.8 µM (inactive) | 64 µM (inactive)
CC(C)(C)OC(=O)NCC(=O)NCC(=O)NCC(=O)NCC(=O)O (Boc-GGGG-OH) | > 100 µM (inactive) | > 100 µM (inactive) | > 100 µM (inactive) | > 100 µM (inactive) | > 100 µM (inactive) | > 100 µM (inactive) | > 100 µM (inactive) | > 100 µM (inactive) | > 100 µM (inactive) | > 100 µM (inactive) | – | > 100 µM (inactive) | – | > 100 µM (inactive) | > 100 µM (inactive) | > 100 µM (inactive) | > 100 µM (inactive) | > 100 µM (inactive) | > 100 µM (inactive) | > 100 µM (inactive)
CN(NC1=NCCO1)c1ccc2ccccc2c1 | 39.7 µM (inactive) | 62.8 µM (inactive) | 42.2 µM (inactive) | 23.6 µM (inactive) | 26.3 µM (inactive) | 47.5 µM (inactive) | 47.3 µM (inactive) | 37.4 µM (inactive) | 65 µM (inactive) | 44.3 µM (inactive) | – | 39.6 µM (inactive) | 17.5 µM (inactive) | 59.7 µM (inactive) | 49.1 µM (inactive) | 80 µM (inactive) | 36.2 µM (inactive) | 38.8 µM (inactive) | 27.2 µM (inactive) | 62.5 µM (inactive)
COC(=O)C(Cc1ccccc1)NC(=O)C(CCC(=O)OCc1ccccc1)NC(=O)OC(C)(C)C (stereo not given) | > 100 µM (inactive) | 82.6 µM (inactive) | > 100 µM (inactive) | 50.2 µM (inactive) | 48.1 µM (inactive) | > 100 µM (inactive) | > 100 µM (inactive) | 30.3 µM (inactive) | > 100 µM (inactive) | > 100 µM (inactive) | – | 27.2 µM (inactive) | > 100 µM (inactive) | > 100 µM (inactive) | > 100 µM (inactive) | > 100 µM (inactive) | > 100 µM (inactive) | 31 µM (inactive) | 30.5 µM (inactive) | > 100 µM (inactive)
CCCCCCN(CCCCCC)CCC(=O)c1ccc2cc(Br)c3ccccc3c2c1 | 40.3 µM (inactive) | 34 µM (inactive) | – | 33 µM (inactive) | 26.7 µM (inactive) | 28.1 µM (inactive) | 31.7 µM (inactive) | 32 µM (inactive) | 64.7 µM (inactive) | 36.3 µM (inactive) | – | 0.318 µM (active) | – | 36.2 µM (inactive) | 25.8 µM (inactive) | 78 µM (inactive) | 89.1 µM (inactive) | 41.3 µM (inactive) | 30.5 µM (inactive) | 23.3 µM (inactive)
CCOC(=O)c1cn(-c2ccc(Cl)cc2)c(=O)n2c1nc1ccccc12 | > 100 µM (inactive) | > 100 µM (inactive) | > 100 µM (inactive) | > 100 µM (inactive) | > 100 µM (inactive) | – | > 100 µM (inactive) | > 100 µM (inactive) | > 100 µM (inactive) | > 100 µM (inactive) | – | > 100 µM (inactive) | > 100 µM (inactive) | > 100 µM (inactive) | > 100 µM (inactive) | > 100 µM (inactive) | – | > 100 µM (inactive) | > 100 µM (inactive) | > 100 µM (inactive)
CC(=O)OCC1OC(n2nc(Cc3ccccc3)c(=S)[nH]c2=S)C(OC(C)=O)C(OC(C)=O)C1OC(C)=O (stereo not given) | 25 µM (inactive) | 21.5 µM (inactive) | 23.2 µM (inactive) | 18.7 µM (inactive) | 14.7 µM (inactive) | 21.6 µM (inactive) | 23.6 µM (inactive) | 20.6 µM (inactive) | 18.7 µM (inactive) | 32.1 µM (inactive) | – | 31.2 µM (inactive) | 20.6 µM (inactive) | 22.1 µM (inactive) | 18.5 µM (inactive) | > 100 µM (inactive) | 31.6 µM (inactive) | – | 69 µM (inactive) | 24.3 µM (inactive)
O=C(NCCc1ccccc1)c1c(O)nc2ccccc2c1O | > 100 µM (inactive) | > 100 µM (inactive) | > 100 µM (inactive) | > 100 µM (inactive) | > 100 µM (inactive) | > 100 µM (inactive) | > 100 µM (inactive) | > 100 µM (inactive) | > 100 µM (inactive) | > 100 µM (inactive) | > 100 µM (inactive) | > 100 µM (inactive) | > 100 µM (inactive) | > 100 µM (inactive) | – | > 100 µM (inactive) | > 100 µM (inactive) | > 100 µM (inactive) | > 100 µM (inactive) | –
N#C/C(c1nc2ccccc2[nH]1)=c1\s/c(=C/c2ccc(Cl)cc2)c(=O)n1-c1ccccc1 | 15.7 µM (inactive) | > 100 µM (inactive) | > 100 µM (inactive) | > 100 µM (inactive) | – | > 100 µM (inactive) | > 100 µM (inactive) | > 100 µM (inactive) | > 100 µM (inactive) | > 100 µM (inactive) | – | > 100 µM (inactive) | 37.3 µM (inactive) | > 100 µM (inactive) | > 100 µM (inactive) | > 100 µM (inactive) | > 100 µM (inactive) | > 100 µM (inactive) | > 100 µM (inactive) | –
c1ccc2c3c([nH]c2c1)C1(CCCCC1)c1c([nH]c2ccccc12)C31CCCCC1 | 31.3 µM (inactive) | 22.9 µM (inactive) | 47.5 µM (inactive) | > 100 µM (inactive) | – | 23.6 µM (inactive) | 17.8 µM (inactive) | 34.4 µM (inactive) | 50.4 µM (inactive) | 24.2 µM (inactive) | – | 22.1 µM (inactive) | 15.9 µM (inactive) | 30.2 µM (inactive) | 23.9 µM (inactive) | > 100 µM (inactive) | 23.1 µM (inactive) | 32.3 µM (inactive) | 34.7 µM (inactive) | –
COC(=O)c1nc(N)nc(O)c1-c1ccc(Cl)cc1 | > 100 µM (inactive) | > 100 µM (inactive) | > 100 µM (inactive) | > 100 µM (inactive) | – | > 100 µM (inactive) | > 100 µM (inactive) | > 100 µM (inactive) | > 100 µM (inactive) | > 100 µM (inactive) | – | > 70 µM (inactive) | > 100 µM (inactive) | > 100 µM (inactive) | > 100 µM (inactive) | > 100 µM (inactive) | > 100 µM (inactive) | > 100 µM (inactive) | > 100 µM (inactive) | –
C/C(=N\NC(=O)CC#N)C(CN1CCCCC1)C(c1ccccc1)c1c(O)c2ccccc2oc1=O (stereo not given) | 77.6 µM (inactive) | – | 26.5 µM (inactive) | 47.5 µM (inactive) | 35.5 µM (inactive) | > 100 µM (inactive) | 63.5 µM (inactive) | 17.4 µM (inactive) | 37.2 µM (inactive) | 21.7 µM (inactive) | 49.8 µM (inactive) | – | 67.5 µM (inactive) | 58.6 µM (inactive) | 45.4 µM (inactive) | > 100 µM (inactive) | 41 µM (inactive) | 55.7 µM (inactive) | – | –
